pIC50: −log10 of the molar value. In brackets after ≈: the same amount, converted by molar mass. Structures can show the parent of a compound that is named as a salt.
Key:
[1] = target: S. aureus 133 Translation; assay: S. aureus in vitro transcription-translation assay (S30 extract, firefly luciferase reporter); type: biochemical
Source text: In vitro Transcription-Translation with S. aureus Extracts
Construction of an S. aureus Luciferase Reporter Plasmid
A reporter plasmid which can be used in an in vitro transcription-translation assay from S. aureus is constructed by using the plasmid pBESTluc (Promega Corporation, USA). The E. coli tac promoter present in this plasmid in front of the firefly luciferase is replaced by the capA1 promoter with appropriate Shine-Dalgarno sequence from S. aureus. The primers CAPFor 5′-CGGCCAAGCTTACTCGGAT-[…] […]-3′ and CAPRev 5′-[…]-3′ are used for this. The primer CAPFor contains the capA1 promoter, the ribosome binding site and the 5′ region of the luciferase gene. After PCR using pBESTluc as template it is possible to isolate a PCR product which contains the firefly luciferase gene with the fused capA1 promoter. This is, after restriction with ClaI and HindIII, ligated into the vector pBESTluc which has likewise been digested with ClaI and HindIII. The resulting plasmid pla is able to replicate in E. coli and be used as template in the S. aureus in vitro transcription-traslation assay.
Preparation of S30 Extracts from S. aureus
Six litres of BHI medium are inoculated with a 250 ml overnight culture of an S. aureus strain and allowed to grow at 37° C. until the OD600 run is 2-4. The cells are harvested by centrifugation and washed in 500 ml of cold buffer A (10 mM Tris acetate, pH 8.0, 14 mM Magnesium acetate, 1 mM DTT, 1 M KCl). After renewed centrifugation, the cells are washed in 250 ml of cold buffer A with 50 mM KCl, and the resulting pellets are frozen at −20° C. for 60 min. The pellets are thawed on ice in 30 to 60 min and taken up to a total volume of 99 ml in buffer B (10 mM Tris acetate, pH 8.0, 20 mM Magnesium acetate, 1 mM DTT, 50.mM KCl). 1.5 ml portions of lysostaphin (0.8 mg/ml) in buffer B are introduced into 3 precooled centrifuge cups and each mixed with 33 ml of the cell suspension. The samples are incubated at 37° C., shaking occasionally, for 45 to 60 min, before 150 μl of a 0.5 M DTT solution are added. The lysed cells are centrifuged at 30 000×g and 4° C. for 30 min. The cell pellet is taken up in buffer B and then centrifuged again under the same conditions, and the collected supernatants are combined. The supernatants are centrifuged again under the same conditions, and 0.25 volume of buffer C (670 mM Tris acetate, pH 8.0, 20 mM Magnesium acetate, 7 mM Na3 phosphoenolpyruvate, 7 mM DTT, 5.5 mM ATP, 70 μM amino acids (complete from Promega), 75 μg of pyruvate kinase (Sigma, Germany)/ml are added to the upper ⅔ of the supernatant. The samples are incubated at 37° C. for 30 min. The supernatants are dialysed against 2 l of dialysis buffer (10 mM Tris acetate, pH 8.0, 14 mM Magnesium acetate, 1 mM DTT, 60 mM Potassium acetate) in a dialysis tube with a 3500 Da cut-off with one buffer change at 4° C. overnight. The dialysate is concentrated to a protein concentration of about 10 mg/ml by covering the dialysis tube with cold PEG 8000 powder (Sigma, Germany) at 4° C. The S30 extracts can be stored in aliquots at −70° C.
Determination of the IC50 in the S. aureus in vitro Transcription-Translation Assay Inhibition of protein biosynthesis of the compounds can be shown in an in vitro transcription-translation assay. The assay is based on the cell-free transcription and translation of firefly luciferase using the reporter plasmid pla as template and cell-free S30 extracts obtained from S. aureus. The activity of the resulting luciferase can be detected by luminescence measurement.
The amount of S30 extract or plasmid pla to be employed must be tested anew for each preparation in order to ensure an optimal concentration in the assay. 3 μl of the substance to be tested, dissolved in 5% DMSO, are introduced into an MTP. Then 10 μl of a suitably concentrated plasmid solution pla are added. […]

E. faecium L4001 [2] = assay: MIC, alternative method: agar dilution test with 20% defibrinated horse blood; type: cell-based; details: Enterococcus faecium
Method: (§1) Alternative Method for Determining the Minimum Inhibitory Concentration (MIC)
(§2) The minimum inhibitory concentration (MIC) is the minimum concentration of an antibiotic with which the growth of a test microbe is inhibited over 18-24 h. The inhibitor concentration can be determined by standard microbiological methods using modified medium in an agar dilution test (see, for example, the National Committee for Clinical Laboratory Standards. Methods for dilution antimicrobial susceptibility tests for bacteria that grow aerobically; approved standard-fifth edition. NCCLS document M7-A5 [ISBN 1-56238-394-9]. NCCLS, 940 West Valley Road, Suite 1400, Wayne, Pa. 19087-1898 USA, 2000). The bacterial microbes are cultivated on 1.5% agar plates containing 20% defibrinated horse blood. The test microbes, which are incubated on Columbia blood agar plates (Becton-Dickinson) overnight, are diluted in PBS, adjusted to a microbe count of about 5×10^5 microbes/ml and placed as drops (1-3 μl) on test plates. The test substances contain various dilutions of the test substances (1:2 dilution stages). The cultures are incubated at 37° C. in the presence of 5% CO2 for 18-24 hours.
(§3) The lowest concentration of each substance at which no visible bacterial growth occurs is defined as the MIC and is reported in μg/ml.

S. aureus E33 [3] = assay: as above; type: cell-based; details: Staphylococcus aureus
Method: as §1, §2, §3

S. aureus T17 [4] = assay: as above; type: cell-based; details: Staphylococcus aureus
Method: as §1, §2, §3

E. faecium L4001 [5] = assay: MIC, liquid dilution test in minimal medium (96-well microtitre plate); type: cell-based; details: Enterococcus faecium, L4001, read-out: MIC E. faecium L4001
Method: (§4) Determination of the Minimum Inhibitory Concentration (MIC)
(§5) The minimum inhibitory concentration (MIC) is the minimum concentration of an antibiotic with which the growth of a test microbe is inhibited over 18-24 h. The inhibitor concentration can in these cases be determined by standard microbiological methods (see, for example, The National Committee for Clinical Laboratory Standards. Methods for dilution antimicrobial susceptibility tests for bacteria that grow aerobically; approved standard-fifth edition. NCCLS document M7-A5 [ISBN 1-56238-394-9]. NCCLS, 940 West Valley Road, Suite 1400, Wayne, Pa. 19087-1898 USA, 2000). The MIC of the compounds of the invention is determined in the liquid dilution test on the 96-well microtitre plate scale. The bacterial microbes are cultivated in a minimal medium (18.5 mM Na2HPO4, 5.7 mM KH2PO4, 9.3 mM NH4Cl, 2.8 mM MgSO4, 17.1 mM NaCl, 0.033 μg/ml thiamine hydrochloride, 1.2 μg/ml nicotinic acid, 0.003 μg/ml biotin, 1% glucose, 25 μg/ml of each proteinogenic amino acid with the exception of phenylalanine; [H.-P. Kroll; unpublished]) with addition of 0.4% BH broth (test medium). In the case of Enterococcus faecium L4001, heat-inactivated fetal calf serum (FCS; GibcoBRL, Germany) is added to the test medium in a final concentration of 10%. Overnight cultures of the test microbes are diluted to an OD578 of 0.001 (to 0.01 in the case of enterococci) in fresh test medium, and incubated 1:1 with dilutions of the test substances (1:2 dilution steps) in test medium (200 μl final volume). The cultures are incubated at 37° C. for 18-24 hours; enterococci in the presence of 5% CO2.
(§6) The lowest substance concentration in each case at which bacterial growth was no longer visible is defined as the MIC. […] The compounds show a graded antibacterial effect against most of the test microbes.

S. aureus E33 [6] = assay: as above; type: cell-based; details: Staphylococcus aureus, E33, read-out: MIC S. aureus E33
Method: as §4, §5, §6

S. aureus T17 [7] = assay: as above; type: cell-based
Method: as §4, §5, §6
The S. aureus strain T17 is isolated in vivo. CFW1 mice are infected intraperitoneally with 4×10^7 S. aureus 133 cells per mouse. 0.5 h after the infection, the animals are treated intravenously with 50 mg/kg biphenomycin B. The kidneys are removed from the surviving animals on day 3 after the infection. After homogenization of the organs, the homogenates are plated out as described for RN4220Bi^R on antibiotic-free and antibiotic-containing agar plates and incubated at 37° C. overnight. […] About 20 of these colonies are tested for the biphenomycin B MIC, and a colony with an MIC of >50 μM is selected for further cultivation, and the strain is referred to a T17.

S. aureus RN4220Bi^R = assay: MIC of the isolated resistant colony; type: cell-based; details: colony selected as strain RN4220Bi^R
Method: The S. aureus strain RN4220Bi^R is isolated in vitro. […] Whereas about 1×10^7 cells grow on the antibiotic-free plate, about 100 colonies grow on the antibiotic-containing plate, corresponding to a resistance rate of 1×10^−5. Some of the colonies grown on the antibiotic-containing plate are tested for the biphenomycin B MIC. One colony with an MIC of >50 μM is selected for further use, and the strain is referred to as RN4220Bi^R.

S. aureus 133 = assay: Systemic infection with S. aureus 133 (mouse sepsis model); type: in vivo; details: female CFW1 mice, i.p. infection, i.v. therapy 30 minutes after infection, survival recorded for 6 days
Method: Systemic Infection with S. aureus 133
For this purpose, S. aureus 133 cells are cultured overnight in BH broth (Oxoid, Germany). The overnight culture was diluted 1:100 in fresh BH broth and expanded for 3 hours. The bacteria which are in the logarithmic phase of growth are centrifuged and washed twice with buffered physiological saline solution. A cell suspension in saline solution with an extinction of 50 units is then adjusted in a photometer (Dr Lange LP 2W). After a dilution step (1:15), this suspension is mixed 1:1 with a 10% strength mucine suspension. 0.2 ml of this infection solution is administered i.p. per 20 g of mouse. This corresponds to a cell count of about 1-2×10 microbes/mouse. The i.v. therapy takes place 30 minutes after the infection. Female CFW1 mice are used for the infection test. The survival of the animals is recorded for 6 days. The animal model is adjusted so that untreated animals die within 24 h after the infection.

[8] = L4001, Table B, agar dilution, 20% defibrinated horse blood, read-out: MIC E. faecium L4001
[9] = E33, Table B, agar dilution, 20% defibrinated horse blood, read-out: MIC S. aureus E33
[10] = T17, Table B, agar dilution, 20% defibrinated horse blood, read-out: MIC S. aureus T17
[11] = Staphylococcus aureus, T17, read-out: MIC S. aureus T17
[12] = L4001, read-out: MIC E. faecium L4001
[13] = E33, read-out: MIC S. aureus E33
[14] = T17, read-out: MIC S. aureus T17

## NCCC[C@@H]1NC(=O)[C@@H](N)Cc2cc(ccc2O)-c2ccc(O)c(c2)C[C@@H](C(=O)NCCN(CCN)CCN)NC1=O [Example 43, (8S,11S,14S)-14-amino-11-(3-aminopropyl)-N-{2-[bis(2-aminoethyl)amino]ethyl}-5,17-dihydroxy-10,13-dioxo-9,12-diazatricyclo[14.3.1.1^2,6]henicosa-1(20),2(21),3,5,16,18-hexaene-8-carboxamide]
[1]; Table B
  pIC50: 6.82
E. faecium L4001 [2]; [8]
  MIC: 16 µg/mL (≈ 27.4 µM)
S. aureus E33 [3]; [9]
  MIC: 1 µg/mL (≈ 1.71 µM)
S. aureus T17 [4]; [10]
  MIC: 2 µg/mL (≈ 3.42 µM)

## CN1C(=O)[C@H](CCCN)NC(=O)[C@@H](N)Cc2cc(ccc2O)-c2ccc(O)c(c2)C[C@H]1C(=O)NCCN [Example 3, (8S,11S,14S)-14-Amino-N-(2-aminoethyl)-11-(3-aminopropyl)-5,17-dihydroxy-9-methyl-10,13-dioxo-9,12-diazatricyclo[14.3.1.1^2,6]henicosa-1(20),2(21),3,5,16,18-hexaene-8-carboxamide trihydrochloride]
E. faecium L4001 [5]
  MIC: 25 µM
S. aureus E33 [6]
  MIC: 1.6 µM
S. aureus T17 [7]; [11]
  MIC: 3.1 µM
[1]; Table A
  pIC50: 6.46
[1]; Table B
  pIC50: 6.46
E. faecium L4001 [2]; [12]
  MIC: 16 µg/mL
S. aureus E33 [3]; [13]
  MIC: 2 µg/mL
S. aureus T17 [4]; [14]
  MIC: 4 µg/mL

## NC[C@H](O)C[C@@H]1NC(=O)[C@@H](N)Cc2cc(ccc2O)-c2ccc(O)c(c2)C[C@@H](C(=O)O)NC1=O [biphenomycin B, reference compound]
S. aureus T17 [7]; colony selected as strain T17, isolated from kidney of treated mice
  MIC: > 50 µM
S. aureus RN4220Bi^R
  MIC: > 50 µM

## NCCC[C@H](N)CNC(=O)[C@@H]1Cc2cc(ccc2O)-c2ccc(O)c(c2)C[C@H](N)C(=O)N[C@@H](CCCN)C(=O)N1 [Example 45, (8S,11S,14S)-14-amino-11-(3-aminopropyl)-N-[(2S)-2,5-diaminopentyl]-5,17-dihydroxy-10,13-dioxo-9,12-diazatricyclo[14.3.1.1 ^2,6]henicosa-1(20),2(21),3,5,16,18,-hexaene-8-carboxamide]
[1]; Table B
  pIC50: 7.00
E. faecium L4001 [2]; [12]
  MIC: 2 µg/mL (≈ 3.6 µM)
S. aureus E33 [3]; [13]
  MIC: 0.5 µg/mL (≈ 0.9 µM)
S. aureus T17 [4]; [14]
  MIC: 2 µg/mL (≈ 3.6 µM)

## CN1C(=O)[C@H](C[C@@H](O)CN)NC(=O)[C@@H](N)Cc2cc(ccc2O)-c2ccc(O)c(c2)C[C@H]1C(=O)NC1CCNCC1 [Example 2, (8S,11S,14S)-14-Amino-11-[(2R)-3-amino-2-hydroxypropyl]-5,17-dihydroxy-9-methyl-10,13-dioxo-N-piperidin-4-yl-9,12-diazatricyclo[14.3.1.1^2,6]henicosa-1(20),2(21),3,5,16,18-hexaene-8-carboxamide trihydrochloride]
E. faecium L4001 [5]
  MIC: 25 µM
S. aureus E33 [6]
  MIC: 1.6 µM
S. aureus T17 [7]; [11]
  MIC: 6.3 µM
[1]; Table A
  pIC50: 6.70
S. aureus 133
  therapeutic effect ED100: 1.25 mg/kg

## NCCCNCCCNC(=O)[C@@H]1Cc2cc(ccc2O)-c2ccc(O)c(c2)C[C@H](N)C(=O)N[C@@H](CCCN)C(=O)N1 [Example 42, (8S,11S,14S)-14-amino-11-(3-aminopropyl)-N-{3-[(3-aminopropyl)amino]propyl}-5,17-dihydroxy-10,13-dioxo-9,12-diazatricyclo[14.3.1.1^2,6]henicosa-1(20),2(21),3,5,16,18-hexaene-8-carboxamide]
[1]; Table B
  pIC50: 6.40
E. faecium L4001 [2]; [8]
  MIC: 4 µg/mL (≈ 7.02 µM)
S. aureus E33 [3]; [9]
  MIC: 1 µg/mL (≈ 1.76 µM)
S. aureus T17 [4]; [10]
  MIC: 2 µg/mL (≈ 3.51 µM)
